These results are taken from patent publication US4205952A, “Specific binding assay method and reagent means” (Technion Research & Development Foundation Ltd., priority 1976, dated 1980).

For test [1], the system named is sepharose-bound anti-E2 (HS)-COOH antibodies. Nature of the test: Inhibition and cross-reaction experiments with E2(HS)-CONH-CH2-Fc. It is filed as binding, rabbit. How it is done: A fixed volume (30 μl) of a solution of iron-labelled estradiol hemisuccinate, E2 (HS)-CONH-CH2 Fc, of suitable concentration (selected from the results obtained in Step (ii) above) was mixed with a constant volume (30 μl) of solutions of various concentrations of unlabelled hapten, estradiol hemisuccinate (or estrone-17-(0-Carboxymethyl)oxime, E1 (Ox)-COOH). This mixture was added to a constant volume (60 μl) of the sepharose-bound antibodies, Vortex-mixed for 1 min. and allowed to incubate at room temperature for 30 min. The Vortex-mixing was repeated at intervals of 10 min. The assay mixture was then centrifuged for 1 min. at 3000 r.p.m. Aliquots (30 μl) were extracted with an Eppendorf pipette and injected into the graphite tube of the AA instrument. The following controls were taken through the same procedure to determine specificity: (a) a suspension of sepharose-bound antibodies without addition of metal-labelled hapten; (b) the mixtures of metal-labelled and non-labelled haptens, without addition of the sepharose-bound antibodies; (c) the mixture of metal-labelled and non-labelled haptens with addition of sepharose-bound γ-globulins of normal rabbit serum.

For the next test, the system named is Anti-BSA antiserum. Nature of the test: Interaction of cobalt-labelled BSA conjugate with anti-BSA antibodies, supernatant Co by AAS. The class given is binding. How it is done: (1) Anti-BSA antiserum (100 μl) was added to each of four tubes numbered 1 to 4. The same volume (100 μl) of 0.01 M phosphate buffer was added to each of additional four tubes, numbered 5 to 8.
(2) A fixed volume (100 μl) of four dilutions of BSA-Cobalt labelled conjugate, containing 0.23, 0.47, 0.94 and 1.88 μg Co/ml (or 0.8, 1.6, 3.1 and 6.2 μg BSA conjugate/100 μl of sample) added to the tubes 1 to 4 respectively and similarly to tubes 5 to 8 respectively.
(3) The solutions were mixed on a Vortex, allowed to incubate for 1 hr. at 37° C. and then for 48 hrs. at 4° C.
(4) The tubes were then centrifuged for 30 min. at 4° C.
(5) The supernatant was analyzed for Co by atomic absorption.
The readings obtained from tubes 5 through 8 served as calibrating controls. The readings from tubes 1 through 4 then indicated the amount of free cobalt-labelled BSA left in solution (by difference the "bound" BSA antigen could be determined). The atomic absorption measurements were interpolated into the calibration curve and gave 0.00, 0.06, 0.59 and 1.25 μg Co/ml of "free" hapten, equivalent to a concentration of 0,0.2,2.0 and 4.3 μg BSA conjugate/100 μl of original sample in tubes 1,2,3 and 4 respectively.

`C[C@]12CC[C@@H]3c4ccc(O)cc4CC[C@H]3[C@@H]1CC[C@@H]2OC(=O)CCC(=O)O` [E2 (HS)--COOH, Estradiol-17β-hemisuccinate]: the “Inhibition of E2 (HS)--CONH--CH2 Fc (27.5 × 10^-7 M)” value in test [1] (unlabelled hapten 3.6 × 10^-7 M) came out at 8.5%; in test [1] (unlabelled hapten 7.2 × 10^-7 M) it was 17.5%; in test [1] (unlabelled hapten 15.0 × 10^-7 M (E2 column)), 21.5%; in test [1] (unlabelled hapten 36.0 × 10^-7 M), 43.5%; in test [1] (unlabelled hapten 72.0 × 10^-7 M), 48.0%; in test [1] (unlabelled hapten 150.0 × 10^-7 M (E2 column)) it was 56.0%. Moreover, in test [1] (unlabelled hapten 300.0 × 10^-7 M), the “Inhibition of E2 (HS)--CONH--CH2 Fc (27.5 × 10^-7 M)” value came out at 63.5%.
For the compound “BSA-Cobalt labelled conjugate: Bovine serum albumin labelled with carboxycobalticenium N-succinimide ester, about 35 haptens per mole”, the “"free" hapten in supernatant” value in the test on Anti-BSA antiserum (tube 1: conjugate 0.23 μg Co/ml, 100 μl + 100 μl antiserum, 1 hr 37° C., 48 hrs 4° C.) is given as 0.00 μg Co/ml; in the test on Anti-BSA antiserum (tube 2: conjugate 0.47 μg Co/ml), 0.06 μg Co/ml; in the test on Anti-BSA antiserum (tube 3: conjugate 0.94 μg Co/ml), 0.59 μg Co/ml; in the test with Anti-BSA antiserum (tube 4: conjugate 1.88 μg Co/ml) it was 1.25 μg Co/ml. For the same compound, the “free conjugate, equivalent concentration” value with Anti-BSA antiserum (tube 4: 6.2 μg BSA conjugate/100 μl added) was 4.3 μg BSA conjugate/100 μl of original sample.
On to `C[C@]12CC[C@@H]3c4ccc(O)cc4CC[C@H]3[C@@H]1CCC2=NOCC(=O)O` [E1 (OX)--COOH, Extrone oxime-0-carboxymethyl], for which the “Inhibition of E2 (HS)--CONH--CH2 Fc (27.5 × 10^-7 M), cross-reaction” value in test [1] (unlabelled hapten 3.75 × 10^-7 M) is 0.5%; in test [1] (unlabelled hapten 7.5 × 10^-7 M), 3.0%; in test [1] (unlabelled hapten 15.0 × 10^-7 M (E1 column)), 6.5%; in test [1] (unlabelled hapten 37.5 × 10^-7 M) it was 9.5%; in test [1] (unlabelled hapten 75.0 × 10^-7 M), 25.5%; in test [1] (unlabelled hapten 150.0 × 10^-7 M (E1 column)), 50.5%.
